Results as given in patent US20070197657A1, “Method for treating non-inflammatory musculoskeletal pain” (SRZ Properties, Inc., priority 2005, published 2007).
“Also recorded” adds a separate entry of the source.

Tests used:
[1] = tested on: TNF-induced reduction of grip strength; assay: biceps muscle grip strength after TNF-induced muscle pain; assay type: in vivo, rat; settings: for reversal of TNF-induced reduction of grip strength: TNF 1 μg i.m. biceps brachii
Text: (§1) The model used in this example is applicable to musculoskeletal pain which occurs in fibromyalgia, myofascial pain syndrome or back pain. For comparative purposes, the non-opioid analgesic dipyrone (metamizol) and the anticonvulsants pregabalin and gabapentin were included in the study.
(§2) Adult male Sprague Dawley rats with a body weight of 250 g to 300 g were used (supplier: Charles River, Sulzfeld, Germany). Animals were group-housed (3 animals per cage) and maintained in a room with controlled temperature (21-22° C.) and a reversed light-dark cycle (12 h/12 h) with food and water available ad libitum. All experiments were approved by the Bavarian State animal experimentation committee and carried out in accordance with its regulations.
(§3) Recombinant rat tumor necrosis factor alpha (herein referred to as TNF) was obtained from R&D Systems, Minneapolis, Minn., U.S.A. TNF was diluted in 0.9% NaCl and used in a concentration of 1 μg in 50 μl. Injections were performed in short halothane narcosis with a 30 g needle bilaterally into the gastrocnemius or into the biceps brachii muscle. All rats were used to the behavioral tests before injections and baseline values were recorded over three test days.
Grip strength of the forelimbs was tested with a digital grip force meter (DFIS series, Chatillon, Greensboro, N.C., U.S.A.). The rat was positioned to grab the grid with the forelimbs and was gently pulled so that the grip strength could be recorded. Means of three trials were calculated. The effect of the TNF treatment was calculated for each animal separately and only animals with a significant TNF effect were included for further analysis.
Rats were injected with TNF into the biceps brachii muscle at 8 am. Six hours later, grip strength of the forelimbs was tested with a digital grip force meter. Test drug was administered, and grip strength was again tested after 30 to 60 minutes.
(§4) The rats, initially 10 per group, were treated with either 3, 10 or 30 mg/kg lacosamide, 2 mg/kg metamizol, 30 or 100 mg/kg pregabalin, 100 mg/kg gabapentin, or the NaCl vehicle, i.p. (intraperitoneally). Volume of i.p. injections was 0.5 ml. A pilot study was performed to confirm that i.m. (intramuscular) injection of 1 μg TNF into the gastrocnemius muscle was sufficient to induce pressure hyperalgesia.
(§5) Data are shown in graphs displaying means and standard errors of the means (SEM). Pre- and post-treatment data were compared using ANOVA (analysis of variance) and a Tukey post hoc test. Means of treatment groups were compared using a one-way ANOVA and Dunnett's post hoc test. Maximal possible effects (MPE) were calculated for all types of treatment.

[2] = tested on: muscle pressure hyperalgesia induced by TNF; assay: TNF-induced muscle pressure hyperalgesia (Randall-Selitto, gastrocnemius muscle); assay type: in vivo, rat; settings: for reversal of muscular mechanical hyperalgesia (withdrawal threshold to muscle pressure): TNF 1 μg i.m. gastrocnemius; for full reversal of the muscle hyperalgesia: doses tested (pregabalin 30, 100 mg/kg; gabapentin 100 mg/kg i.p.)
Text: as §1, §2, §3
Mechanical withdrawal thresholds to muscle pressure were measured with an analgesimeter (Ugo Basile, Comerio, Italy). The rat was allowed to crawl into a sock which helps the rat to relax. The hind limbs were positioned such that an increasing pressure could be applied onto the gastrocnemius muscle (maximum 250 g). The pressure needed to elicit withdrawal was recorded. Means of 3 trials for each hind limb were calculated (interstimulus interval of >30 sec). Only animals with a significant TNF effect were included for further analysis.
Rats were injected with TNF into the gastrocnemius muscle at 2 pm. Eighteen hours later, rats were tested for pressure hyperalgesia pre- and post-administration of the test drug. Rats were tested for pressure hyperalgesia 30 to 60 minutes after drug administration.
as §4, §5

[3] = tested on: formalin-induced flinching and licking of the affected paw; assay: rat formalin paw test (late phase); assay type: in vivo
Method: Rats were given an intraplantar injection of 5% formalin (50 μl) into the posterior left paw. This treatment induces a recognizable flinching and licking response of the affected paw in control animals. The number of flinches was counted for 15 minutes, beginning 20 minutes after injection of formalin. The time spent licking the affected paw was also recorded.
Male Rj: Wistar (Han) rats, 10 per group, weighing 100-130 g at the beginning of the experiments were studied per group. The test was performed blind.
Lacosamide (20 mg/kg), gabapentin (50 and 100 mg/kg), combinations of lacosamide (20 mg/kg) with gabapentin (50 and 100 mg/kg), and vehicle were administered i.p. 10 minutes before injection of formalin.
Lacosamide (10 and 20 mg/kg), morphine (2 and 4 mg/kg), combinations of lacosamide (10 and 20 mg/kg) with morphine (2 and 4 mg/kg), and vehicle were administered i.p. 10 minutes before injection of formalin.
Lacosamide (10 mg/kg), duloxetine (8 mg/kg), a combination of lacosamide (10 mg/kg) with duloxetine (8 mg/kg), and vehicle were administered i.p. 10 minutes before injection of formalin.
Lacosamide (10 and 20 mg/kg), memantine (4 and 8 mg/kg), combinations of lacosamide (10 and 20 mg/kg) with memantine (4 and 8 mg/kg), and vehicle were administered i.p. 10 minutes before injection of formalin.
Lacosamide (10 and 20 mg/kg), naproxen (8 and 16 mg/kg), combinations of lacosamide (10 and 20 mg/kg) with […] (8 and 16 mg/kg), and vehicle were administered i.p. 10 minutes before injection of formalin. Morphine (8 mg/kg) was included as a comparative treatment.

[4] = tested on: monosodium iodoacetate-induced mechanical hyperalgesia; assay: monosodium iodoacetate-induced mechanical hyperalgesia (Randall-Selitto paw pressure); assay type: in vivo, rat
[5] = tested on: monosodium iodoacetate-induced tactile allodynia; assay: monosodium iodoacetate-induced tactile allodynia (von Frey filaments); assay type: in vivo, rat; settings: 30 mg/kg (lacosamide p.o., diclofenac s.c.)
[6] = Example 5, duloxetine 8 mg/kg i.p.
[7] = Example 3, gabapentin 50 mg/kg i.p.
[8] = Example 3, gabapentin 100 mg/kg i.p.

`Cc1c(N(C)CS(=O)(=O)O)c(=O)n(-c2ccccc2)n1C` [metamizol] was tested, and the “MPE (maximal possible effect) on biceps muscle grip strength, versus vehicle” value ([1]; 2 mg/kg i.p.) was “significantly different from vehicle”, the “reversal of TNF-induced reduction of grip strength” value ([1]; 2 mg/kg i.p.) was “significant reversal” and the “MPE (maximal possible effect) on muscle pressure hyperalgesia, versus vehicle” value ([2]; 2 mg/kg i.p.) was “significantly different from vehicle”. For the same molecule, the “reversal of muscular mechanical hyperalgesia (withdrawal threshold to muscle pressure)” value ([2]; 2 mg/kg i.p.) was “complete reversal”.
`CC12CC3CC(C)(C1)CC(N)(C3)C2` [Memantine, memantine, reference compound] was tested, and the “effect on the number of flinches as compared with vehicle controls” value ([3]; Example 6, memantine 4 and 8 mg/kg i.p.) was “did not clearly affect”.
With `CNCC[C@H](Oc1cccc2ccccc12)c1cccs1` [Duloxetine, duloxetine, reference compound] the “Licking time % change (a): compared with vehicle control” value (shortened to “Licking time % change”) [3, 6] was −26%, the “Licking time (seconds) mean ± SEM” value [3, 6] was 195.5 ± 45.0 s and the “No. of flinches % change (a): compared with vehicle control” value (“No. of flinches % change” for short) [3, 6] was −1%. For the same molecule, the “No. of flinches mean ± SEM” value [3, 6] was 149.6 ± 27.3 and the “effects on number of flinches and time spent licking” value [3, 6] was “no clear effects”.
For `CC(C)C[C@H](CN)CC(=O)O` [pregabalin], the “MPE (maximal possible effect) on biceps muscle grip strength, versus vehicle” value ([1]; 100 mg/kg i.p.) was “significantly different from vehicle”, the “reversal of TNF-induced reduction of grip strength” value ([1]; 100 mg/kg i.p., 100 mg/kg) was “significant reversal; also recorded: improved grip strength” and the “MPE (maximal possible effect) on muscle pressure hyperalgesia, versus vehicle” value ([2]; 30 mg/kg i.p.) was “significantly different from vehicle”. The “MPE (maximal possible effect) on muscle pressure hyperalgesia, versus vehicle” value ([2]; 100 mg/kg i.p.) was “significantly different from vehicle”, the “reversal of muscular mechanical hyperalgesia (withdrawal threshold to muscle pressure)” value ([2]; 30 mg/kg i.p.) was “significant reversal” and the “reversal of muscular mechanical hyperalgesia (withdrawal threshold to muscle pressure)” value ([2]; 100 mg/kg i.p.) was “significant reversal”. For the same molecule, the “full reversal of the muscle hyperalgesia” value [2] was “Neither pregabalin nor gabapentin led to a full reversal”.
`NCC1(CC(=O)O)CCCCC1` [Gabapentin, gabapentin, reference compound] was tested, and the “Licking time % change” value [3, 7] was −28%, the “Licking time (seconds) mean ± SEM” value [3, 7] was 161.0 ± 27.3 s and the “No. of flinches % change” value [3, 7] was −24%. The “No. of flinches mean ± SEM” value [3, 7] was 97.4 ± 23.8, the “decrease in the number of flinches as compared with vehicle controls” value [3, 7] was 24% and the “decrease in the time spent licking as compared with vehicle controls” value [3, 7] was 28%. For the same molecule, the “Licking time % change” value [3, 8] was −60%, the “Licking time (seconds) mean ± SEM” value [3, 8] was 90.0 ± 22.5 s and the “No. of flinches % change” value [3, 8] was −31%. For the same molecule, the “No. of flinches mean ± SEM” value [3, 8] was 88.1 ± 19.4, the “decrease in the number of flinches as compared with vehicle controls” value [3, 8] was 31% and the “decrease in the time spent licking as compared with vehicle controls” value [3, 8] was 60%. The “MPE (maximal possible effect) on biceps muscle grip strength, versus vehicle” value ([1]; 100 mg/kg i.p.) was “significantly different from vehicle”, the “reversal of TNF-induced reduction of grip strength” value ([1]; 100 mg/kg i.p., 100 mg/kg) was “significant reversal; also recorded: improved grip strength” and the “MPE (maximal possible effect) on muscle pressure hyperalgesia, versus vehicle” value ([2]; 100 mg/kg i.p.) was “significantly different from vehicle”. For the same molecule, the “reversal of muscular mechanical hyperalgesia (withdrawal threshold to muscle pressure)” value ([2]; 100 mg/kg i.p.) was “significant reversal” and the “full reversal of the muscle hyperalgesia” value [2] was “Neither pregabalin nor gabapentin led to a full reversal”.
`O=C(O)Cc1ccccc1Nc1c(Cl)cccc1Cl` [Diclofenac, diclofenac] was tested, and the “mechanical hyperalgesia (paw pressure withdrawal threshold) compared to iodoacetate/vehicle treated animals” value ([4]; day 3, 30 mg/kg s.c.) was “increase in paw pressure withdrawal threshold”, the “mechanical hyperalgesia (paw pressure withdrawal threshold)” value ([4]; day 7, 30 mg/kg (lacosamide p.o., diclofenac s.c.)) was “reduced mechanical hyperalgesia” and the “tactile allodynia of iodoacetate-treated rats” value (shortened to “tactile allodynia”) ([5]; day 3) was “no effect”. For the same molecule, the “tactile allodynia” value ([5]; day 7) was “no effect” and the “tactile allodynia” value ([5]; day 14) was “no effect”.
For `COc1ccc2cc([C@H](C)C(=O)O)ccc2c1` [Naproxen, naproxen, reference compound], the “effect on the number of flinches or the time spent licking as compared with vehicle controls” value ([3]; Example 7, naproxen 8 and 16 mg/kg i.p.) was “did not clearly affect”.
